Laboratory results published in the supplement of paper PMC4121296.

Tests used:
Conditions in all cases: exposure: 5-72 hpf
[1] = test system: Danio rerio embryo (fli1:egfp); experiment: body length at 72 hpf (µm); higher = longer body (less growth inhibition)
Description: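 Transgenic fli1:egfp zebrafish embryos (one per well, 384-well plate) exposed statically from 5 to 72 hpf at 28 °C to chemical (0.05-50 µM, 0.1% DMSO); at 72 hpf anesthetized and imaged on ImageXpress; body length of live, hatched, correctly oriented embryos measured by automated MetaXpress journal. Dead/unhatched/misoriented embryos have no value.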

[2] = test system: Danio rerio embryo (fli1:egfp); experiment: arterial (dorsal aorta) circulation score at 72 hpf (normalized DA-Max (arbitrary units)); higher = more circulation
Description: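 fli1:egfp zebrafish embryos exposed 5-72 hpf to chemical (0.05-50 µM, 0.1% DMSO); arterial circulation at 72 hpf quantified from stream acquisitions of the dorsal aorta by FFT-based analysis (DA-Max, normalized dorsal aorta signal); only concentrations passing survival/body-length criteria analyzed.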

[3] = test system: Danio rerio embryo (fli1:egfp); experiment: heart rate at 72 hpf (beats per minute); higher = faster heart rate
Description: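 fli1:egfp zebrafish embryos exposed 5-72 hpf to chemical (0.05-50 µM, 0.1% DMSO) in 384-well plates; heart rate at 72 hpf quantified from stream acquisitions by semi-automated MetaXpress journal (peak counting); only embryos in concentrations passing survival/body-length criteria analyzed.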

[4] = test system: Danio rerio embryo (fli1:egfp); experiment: pericardial area at 72 hpf (image area units (not stated)); higher = larger pericardial area (edema)
Description: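 fli1:egfp zebrafish embryos exposed 5-72 hpf to chemical (0.05-50 µM, 0.1% DMSO); pericardial area at 72 hpf measured by semi-automated MetaXpress journal (increase indicates edema).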

[5] = test system: Danio rerio embryo (fli1:egfp); experiment: intersegmental vessel area normalized to body length at 72 hpf (ISV area / body length (normalized units)); higher = more vessel area
Description: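 fli1:egfp zebrafish embryos exposed 5-72 hpf to chemical (0.05-50 µM, 0.1% DMSO); intersegmental vessel (ISV) eGFP area quantified by MetaXpress journal at 72 hpf and normalized to body length.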

C[C@@]1(c2ccc(Oc3ccccc3)cc2)OC(=O)N(Nc2ccccc2)C1=O (racemic) [Famoxadone]
Conditions | arterial, [2] | body length at 72 hpf, [1] | heart rate at 72 hpf, [3] | intersegmental vessel area normalized, [5] | pericardial area at 72 hpf, [4]
0.05 µM | 15.7 | 2980 | 172 | 72.5 | 13400
0.098 µM | 14.7 | 2990 | 180 | 84.9 | 13700
0.195 µM | 14.5 | 2970 | 188 | 77.8 | 13500
0.39 µM | 12.7 | 2970 | 177 | 75.4 | 12100
0.78 µM | 14.9 | 2940 | 160 | 80 | 15500

O=C(O)c1cc(Oc2ccc(C(F)(F)F)cc2Cl)ccc1[N+](=O)[O-] [Acifluorfen]
Conditions | arterial, [2] | body length at 72 hpf, [1] | heart rate at 72 hpf, [3] | intersegmental vessel area normalized, [5] | pericardial area at 72 hpf, [4]
0.05 µM | 16.3 | 2970 | 168 | 81.7 | 14900
0.098 µM | 14.7 | 3000 | 169 | 82.8 | 17600
0.195 µM | 14.4 | 3030 | 166 | 89.2 | 16700
0.39 µM | 15.6 | 3000 | 168 | 82.3 | 16700
0.78 µM | 14.4 | 2970 | 167 | 92.9 | 15600
1.56 µM | 15.9 | 3040 | 164 | 82.3 | 16400
3.125 µM | 15.2 | 3030 | 164 | 85.2 | 17500
6.25 µM | 14.2 | 3030 | 177 | 89.2 | 19400
12.5 µM | 16.1 | 3020 | 175 | 89.5 | 15900
25 µM | 15.6 | 2960 | 175 | 89.3 | 15500
50 µM | 14.5 | 2980 | 180 | 99.8 | 15800

C=CCOC(=O)C(C)(C)OC(=O)c1cc(-n2c(=O)cc(C(F)(F)F)n(C)c2=O)ccc1Cl [Butafenacil]
Conditions | arterial, [2] | body length at 72 hpf, [1] | heart rate at 72 hpf, [3] | intersegmental vessel area normalized, [5] | pericardial area at 72 hpf, [4]
0.05 µM | 11.5 | 2960 | 182 | 72.8 | 15900
0.098 µM | 11.8 | 2990 | 180 | 61.6 | 14800
0.195 µM | 10.1 | 2960 | 191 | 70.6 | 16200
0.39 µM | 7.84 | 3000 | 185 | 68.9 | 15700
0.78 µM | 5.12 | 2970 | 172 | 55.9 | 18900
1.56 µM | 5.32 | 2970 | 168 | 61.2 | 18800
3.125 µM | 5.76 | 2980 | 175 | 69.3 | 18700
6.25 µM | 4.56 | 3010 | 184 | 72.8 | 28100
12.5 µM | 3.81 | 2860 | 163 | 81.2 | 36500

CCOC(=O)C(Cl)Cc1cc(-n2nc(C)n(C(F)F)c2=O)c(F)cc1Cl (stereo unspecified) [Carfentrazone-ethyl]
Conditions | arterial, [2] | body length at 72 hpf, [1] | heart rate at 72 hpf, [3] | intersegmental vessel area normalized, [5] | pericardial area at 72 hpf, [4]
0.05 µM | 13.5 | 2950 | 186 | 53.3 | 13800
0.098 µM | 13.1 | 2970 | 172 | 55.6 | 15600
0.195 µM | 14.4 | 2980 | 187 | 64.4 | 15200
0.39 µM | 12.6 | 2990 | 190 | 61.5 | 17900
0.78 µM | 12.8 | 3030 | 194 | 65.4 | 17700
1.56 µM | 11.6 | 2950 | 186 | 56.7 | 18200
3.125 µM | 8.55 | 2940 | 190 | 64.7 | 19600
6.25 µM | 8.33 | 2970 | 184 | 67.9 | 25600

N#Cc1c(Cl)c(Cl)c(Cl)c(C#N)c1Cl [Chlorothalonil]
Conditions | arterial, [2] | body length at 72 hpf, [1] | heart rate at 72 hpf, [3] | intersegmental vessel area normalized, [5] | pericardial area at 72 hpf, [4]
0.05 µM | 11.6 | 2960 | 138 | 70.8 | 17600
0.098 µM | 10.8 | 2990 | 140 | 78.4 | 24100
0.195 µM | 10.3 | 2940 | 154 | 75.7 | 23900
0.39 µM | 12.3 | 2880 | 153 | 80.7 | 22000

C#CCOC(=O)[C@@H](C)Oc1ccc(Oc2ncc(Cl)cc2F)cc1 [Clodinafop-propargyl]
Conditions | arterial, [2] | body length at 72 hpf, [1] | heart rate at 72 hpf, [3] | intersegmental vessel area normalized, [5] | pericardial area at 72 hpf, [4]
0.0244 µM | 11.8 | 3010 | 177 | 65.9 | 14100
0.05 µM | 14.5 | 2990 | 168 | 84.8 | 13100
0.098 µM | 12.3 | 2960 | 173 | 79 | 12900
0.195 µM | 16.7 | 3060 | 183 | 76.8 | 13800
0.39 µM | 14.4 | 3000 | 188 | 87.1 | 15200
0.78 µM | 14.4 | 3000 | 185 | 73.6 | 15400
1.56 µM | 12 | 3030 | 190 | 84 | 13500
3.125 µM | 14.8 | 3030 | 191 | 82.7 | 12900
6.25 µM | 12.5 | 2930 | 193 | 82.8 | 12900
12.5 µM | 13.6 | 2940 | 196 | 89.6 | 13000

CC1(C)C(C=C(Cl)Cl)C1C(=O)OC(C#N)c1ccc(F)c(Oc2ccccc2)c1 (stereo unspecified) [Cyfluthrin]
Conditions | arterial, [2] | body length at 72 hpf, [1] | heart rate at 72 hpf, [3] | intersegmental vessel area normalized, [5] | pericardial area at 72 hpf, [4]
0.05 µM | 14.9 | 3010 | 185 | 80.1 | 16100
0.098 µM | 14.7 | 3040 | 187 | 71.9 | 14000
0.195 µM | 16.3 | 3030 | 188 | 80.3 | 12900
0.39 µM | 12.4 | 3070 | 193 | 83.3 | 13300
0.78 µM | 9.66 | 3020 | 202 | 71.9 | 14900
1.56 µM | 13 | 2900 | 198 | 78.4 | 16800
3.125 µM | 14.7 | 2790 | 190 | 92.3 | 16900
6.25 µM | – | 2620 | – | – | –

CN1CSC(=S)N(C)C1 [Dazomet]
0.05 µM
Conditions | arterial | body length at 72 hpf | heart rate at 72 hpf | intersegmental vessel area normalized | pericardial area at 72 hpf
[1] | – | 2860 | – | – | –
[2] | 14.4 | – | – | – | –
[3] | – | – | 168 | – | –
[4] | – | – | – | – | 15600
[5] | – | – | – | 72.7 | –

CC(C)[C@H](C(=O)O[C@H](C#N)c1cccc(Oc2ccccc2)c1)c1ccc(Cl)cc1 [Esfenvalerate]
Conditions | arterial, [2] | body length at 72 hpf, [1] | heart rate at 72 hpf, [3] | intersegmental vessel area normalized, [5] | pericardial area at 72 hpf, [4]
0.05 µM | 9.88 | 3070 | 184 | 72.5 | 14800
0.098 µM | 10.8 | 3140 | 182 | 76.8 | 16600
0.195 µM | 10.1 | 3150 | 196 | 76.2 | 14700
0.39 µM | 10.9 | 3090 | 198 | 76.1 | 15300
0.78 µM | 10.1 | 3140 | 195 | 75.7 | 15800
1.56 µM | 10.3 | 3160 | 194 | 63.9 | 15900
3.125 µM | 13.2 | 2970 | 188 | 88.9 | 14100
6.25 µM | 11.9 | 2830 | 188 | 88.2 | 14600
12.5 µM | – | 2760 | – | – | –
25 µM | – | 2640 | – | – | –
50 µM | – | 2750 | – | – | –

CC1(C)C(C(=O)OC(C#N)c2cccc(Oc3ccccc3)c2)C1(C)C (stereo unspecified) [Fenpropathrin]
Conditions | arterial, [2] | body length at 72 hpf, [1] | heart rate at 72 hpf, [3] | intersegmental vessel area normalized, [5] | pericardial area at 72 hpf, [4]
0.05 µM | 18.5 | 2970 | 183 | 83.1 | 14600
0.098 µM | 13.8 | 2950 | 197 | 80.8 | 13400
0.195 µM | 11.2 | 2970 | 191 | 73.2 | 14500
0.39 µM | 10.7 | 2940 | 192 | 83.8 | 14400
0.78 µM | 12.6 | 2780 | 192 | 85.4 | 13200
1.56 µM | 20.9 | 2720 | 188 | 90.6 | 13400
3.125 µM | 21.2 | 2710 | 186 | 82.2 | 13600
6.25 µM | – | 2640 | – | – | –
12.5 µM | – | 2590 | – | – | –

CCOC(=O)COc1cc(-n2ncc(C(F)(F)F)c(C)c2=O)c(F)cc1Cl [Flufenpyr-ethyl]
Conditions | arterial, [2] | body length at 72 hpf, [1] | heart rate at 72 hpf, [3] | intersegmental vessel area normalized, [5] | pericardial area at 72 hpf, [4]
0.05 µM | 8.79 | 2990 | 169 | 84.4 | 12800
0.098 µM | 9.74 | 3000 | 178 | 70.8 | 13000
0.195 µM | 9.58 | 3040 | 181 | 75.2 | 12300
0.39 µM | 8.94 | 3080 | 180 | 77.1 | 13600
0.78 µM | 9.32 | 3020 | 186 | 74.8 | 13300
1.56 µM | 8.81 | 3020 | 182 | 75.8 | 13600
3.125 µM | 6.7 | 2950 | 181 | 82.9 | 15300
6.25 µM | 5.21 | 2810 | 166 | 83.5 | 25900
